# Data as given in PubChem BioAssay (NCI).
#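 Where inhibition never reached the appropriate level, the endpoint shown equals the highest concentration tested. Otherwise, values were interpolated linearly from a five-concentration, 48-hour dose response in 96-well plates. TGI: concentration producing complete growth inhibition.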
# Experiments:
# Experiment in all cases: growth of human tumour cells (NCI), 48 h
# SK-MEL-5 melanoma = tested on: SK-MEL-5 melanoma
# HS 578T breast = tested on: HS 578T breast
# TK-10 renal = tested on: TK-10 renal
# HOP-62 NSCLC = tested on: HOP-62 NSCLC
# DU-145 prostate = tested on: DU-145 prostate
# 786-0 renal = tested on: 786-0 renal
# BT-549 breast = tested on: BT-549 breast
# LOX IMVI melanoma = tested on: LOX IMVI melanoma
# T-47D breast = tested on: T-47D breast
# SK-MEL-2 melanoma = tested on: SK-MEL-2 melanoma
# HL-60(TB) leukemia = tested on: HL-60(TB) leukemia
# RPMI-8226 leukemia = tested on: RPMI-8226 leukemia
# MDA-MB-435 = tested on: MDA-MB-435
# SF-295 CNS = tested on: SF-295 CNS
# SR leukemia = tested on: SR leukemia
# UO-31 renal = tested on: UO-31 renal
# NCI-H460 lung = tested on: NCI-H460 lung
# SF-268 CNS = tested on: SF-268 CNS
# HT29 colon = tested on: HT29 colon
# SW-620 colon = tested on: SW-620 colon
Structure (SMILES),TGI (SK-MEL-5 melanoma) [µM],TGI (HS 578T breast) [µM],TGI (TK-10 renal) [µM],TGI (HOP-62 NSCLC) [µM],TGI (DU-145 prostate) [µM],TGI (786-0 renal) [µM],TGI (BT-549 breast) [µM],TGI (LOX IMVI melanoma) [µM],TGI (T-47D breast) [µM],TGI (SK-MEL-2 melanoma) [µM],TGI (HL-60(TB) leukemia) [µM],TGI (RPMI-8226 leukemia) [µM],TGI (MDA-MB-435) [µM],TGI (SF-295 CNS) [µM],TGI (SR leukemia) [µM],TGI (UO-31 renal) [µM],TGI (NCI-H460 lung) [µM],TGI (SF-268 CNS) [µM],TGI (HT29 colon) [µM],TGI (SW-620 colon) [µM]
CC(=O)Oc1c2ccsc2c(OC(C)=O)c2ccsc12,0.31,0.951,4.2,4.4,0.833,5.2,1.86,0.357,4.09,1.98,> 26.5,> 28,0.377,2.41,0.88,2.57,3.57,5.81,4.45,–
C=CCOCn1cc(F)c(=O)[nH]c1=O,> 100,> 100,> 100,> 100,> 100,> 100,> 100,> 100,> 100,–,> 100,> 100,> 100,> 100,> 100,> 100,> 100,> 100,> 100,> 100
CO[C@@]12C[C@@H](C)[C@]34O[C@H]3C[C@]3(C)O[C@]43CC1=C(C)C(=O)O2,> 100,> 100,> 100,–,> 100,> 100,> 100,> 100,> 100,> 100,–,> 100,> 100,> 100,–,> 100,> 100,> 100,> 100,> 100
Cc1cn(Cc2cccc(C3=NCCCN3)c2)c(=O)n(Cc2cccc(C3=NCCCN3)c2)c1=O,> 100,> 100,> 100,> 100,> 100,> 100,> 100,> 100,> 100,> 100,> 100,> 100,> 100,> 100,> 100,> 100,> 100,> 100,–,> 100
COC(=O)c1cc(O)c(O)c(O)c1-c1c(O)c(O)c(O)c(SC[C@H](NC(=O)OCc2ccccc2)C(=O)OCc2ccccc2)c1C(=O)OC,–,> 100,> 100,> 100,> 100,49.6,> 100,49.4,> 100,52.9,39.8,81.7,44,> 100,–,–,> 100,> 100,86.5,62.8
O=C(COc1ccccc1)N(C(=O)N1CCN(c2ccccc2)CC1)S(=O)(=O)c1ccccc1,> 100,> 100,> 100,> 100,> 100,> 100,> 100,> 100,87.6,> 100,> 100,–,> 100,> 100,45.4,> 100,> 100,> 100,> 100,> 100
CCc1c(CNC2=NCCN2)c(CC)c(CNC2=NCCN2)c(CC)c1CNC1=NCCN1,> 100,> 100,> 100,> 100,> 100,> 100,> 100,–,> 100,> 100,–,> 100,> 100,> 100,> 100,> 100,> 100,> 100,> 100,> 100
C=CCN1C[C@H](C)N([C@H](c2ccc(C(=O)N(CC)CC)cc2)c2cccc(OC)c2)C[C@H]1C,27.6,> 100,> 100,> 100,> 100,> 100,> 100,–,65.5,> 100,64.9,> 100,> 100,58.3,> 100,> 100,–,> 100,> 100,> 100
Cc1nc2cc3ccccc3cc2[nH]c1=O,> 100,–,> 100,> 100,> 100,> 100,> 100,> 100,> 100,> 100,> 100,–,> 100,> 100,> 100,> 100,> 100,> 100,> 100,> 100
CN(/N=C/c1ccccn1)C1=NCCCN1,> 100,> 100,> 100,> 100,–,> 100,> 100,> 100,> 100,> 100,> 100,> 100,> 100,> 100,> 100,> 100,> 100,> 100,> 100,> 100
c1ccc(-c2c(-c3cccs3)[nH]c(-c3cccs3)c2-c2ccccn2)nc1,26.6,59.7,> 100,–,> 100,53,41.5,37.1,94.9,–,> 100,68.5,43.6,39.2,81.1,57.3,63.5,49.8,30.3,68.8
Cc1cc(S(=O)(=O)Nc2nnc3ccccn23)c(S)cc1Cl,> 100,> 100,> 100,> 100,> 100,> 100,> 100,> 100,> 100,> 100,> 100,> 100,> 100,64.8,> 100,> 100,> 100,–,> 100,> 100
